Key:
BG01 cells [1] = assay: Sox17 Q-PCR, GSK3 inhibitor on LY 294002 induced DE formation; format: cell-based, human; conditions: 60 μM LY 294002; BIO 0.1-5 μM, MeBIO 1-5 μM; 3-4 days
Description: BG01 cells were passaged on matrigel using the collagenase/trypsin method as described above and were plated on matrigel-coated chamber slides in CM. After approximately 24 hours, the medium was changed, and the cells were treated with 60 μM LY 294002, BIO, meBIO, or DMSO for approximately 3-4 days. The inhibitor BIO (Dr. Ali Brivanlou) was diluted in DMSO and was used at a concentration of approximately 0.1-5 μM. MeBIO (Dr. Ali Brivanlou) was also diluted in DMSO and used at a concentration of approximately 1-5 μM. Assays were performed in triplicate and are shown as +/−SEM.
Cells were grown in these conditions for approximately 3-4 days with a medium change every 24 hours. Cells were harvested using the collagenase/trypsin method for Q-PCR as described above

hESC = assay: Sox17 Q-PCR, MEF-CM and LY 294002 with signaling inhibitors; format: cell-based, human; conditions: proteins approximately 500 ng/ml, SB-43152 approximately 10 μM, SU-5402 approximately 5 μM
Description: Sox 17 expression was evaluated by Q-PCR under culture conditions competent to support hESC-DE formation (MEF-CM and LY 294002) in the presence or absence of Chordin (approximately 500 ng/ml), Follistatin (approximately 500 ng/ml), Lefty-A (approximately 500 ng/ml), Noggin (approximately 500 ng/ml), SB-43152 (approximately 10 μM), and SU-5402 (approximately 5 μM). Assays were performed in triplicate and are shown as +/−SEM.

BG01 cell line = assay: SOX17 and AFP immunofluorescence staining; format: cell-based, human
Description: Cells to be immunostained were grown on chamber slides, and were rinsed once with 1×PBS and fixed for 10 minutes in 4% PFA/4% sucrose in PBS pH 7.4 at room temperature. They were then rinsed 3× in 1×PBS and blocked in 3% goat serum with 0.1% Triton-X100 in PBS for 1 hour at room temperature. Primary antibodies were diluted in 3% goat serum in PBS and this solution was applied overnight at 4° C. The primary antibodies used were rabbit anti-human AFP (Zymed), used at a 1:50 dilution, and rat anti-human SOX17 (obtained from Cythera, Inc.), used at 1:1000 dilution. Cells were washed for 1 hour with 3 changes of 1×PBS. Secondary antibodies were applied for 2 hours at room temperature. Secondary antibodies used were goat anti-rabbit Alexa Fluor 488 and goat anti-rat Alexa Fluor 594 (Molecular Probes), both at a 1:1000 dilution in 3% goat serum in 1×PBS. Cells were washed for 1 hour with 3 changes of 1×PBS. The chambers were removed and slides were mounted in VectaShield mounting medium with DAPI (Vector).

hESCs = assay: Kidney capsule assay of LY 294002 treated hESCs; format: in vivo, SCID-beige mice; conditions: relative to LY 294002 treated cells that were not implanted
Description: Untreated hESCs or hESCs treated for 4 days with 60 μM LY 294002 were collagenase treated to generate cell aggregates (˜50 cells/aggregate), washed in warm media, then gently resuspended in 2 ml DMEM/F12, 10% FCS and left overnight at 37° C., 10% CO2 to facilitate further aggregation. Approximately 2.5×10^6 cells were injected into the kidney capsule of 5 week old male SCID-beige mice. 6 weeks after transplantation, mice were sacrificed, and the kidneys were removed and fixed in 4% paraformaldehyde. Following fixation, kidneys were embedded in paraffin wax, sectioned and mounted onto glass slides in preparation for H&E and immunostaining. After mounting, slides underwent deparaffinization, rehydration and heat induced epitope retrieval with Trilogy (Cell Marque, CMX-833). Slides were stained using the alkaline phosphatase Vectastain ABC System (Vector Labs, AK-5002) and Vector Red substrate (Vector Labs, SK-5100). […] For fluorescence immunocytochemistry the following secondary antibodies were used; Alexa Fluor 488 goat anti-mouse IgG (Molecular Probes, A11001), Alexa Fluor 594 goat anti-rabbit IgG (Molecular Probes, A11012).

BG01 cells [2] = assay: Sox17 Q-PCR, LY 294002 with conditioned medium or TGFβ members; format: cell-based, human; conditions: UCM, approximately 4 days
Description: BG01 cells were passaged from feeders using the collagenase/trypsin method and were plated on matrigel coated dishes at 1×10^5 cells/35 mm dish in unconditioned hES medium (UCM). After approximately 24 hours, the media was replaced with fresh hES medium or MEF-CM, along with LY 294002, Activin A, or Nodal as shown in FIG. 8A. LY 294002 was used at a concentration of approximately 60 μM; Activin A was used at a concentration of approximately 100 ng/ml; and Nodal was used at a concentration of approximately 1 μg/ml. Cells were treated for approximately 4 days, with a change in medium every 24 hours. Cells were harvested using the collagenase/trypsin method for Q-PCR analysis. Sox-17 Q-PCR was performed as described in Example 3.

O=C1Nc2cc(Br)ccc2/C1=C1/Nc2ccccc2/C1=N\O [BIO]
LY 294002 induced DE formation as determined by Sox17 expression (BG01 cells [1]): blocked

NC(=O)c1ccc(-c2nc(-c3ccccn3)c(-c3ccc4c(c3)OCO4)[nH]2)cc1 [SB-43152]
LY 294002, MEF-CM dependent Sox17 expression (hESC): suppressed

O=c1cc(N2CCOCC2)oc2c(-c3ccccc3)cccc12 [LY 294002]
cell population expressing SOX17 (BG01 cell line; counting 500 cells): 60% | cells expressing SOX17 (BG01 cell line; of 500 cells counted): 296 cells | increase in FABP1 mRNA (hESCs): 1000 fold | increase in albumin mRNA (hESCs): 4500 fold

MeBIO
LY 294002 induced DE formation as determined by Sox17 expression (BG01 cells [1]): not

B1: Nodal: member of the TGFβ family (protein, UniProt Q96S42 238-347, looked up)
Nodal homolog: HHLPDRSQLCRKVKFQVDFNLIGWGSWIIYPKQYNAYRCEGECPNPVGEEFHPTNHAYIQSLLKRYQPHRVPSTCCAPVKTKPLSMLYVDNGRVLLDHHKDMIVEECGCL
Sox17 expression (fold-increase over untreated) (BG01 cells [2]; LY 294002 approximately 60 μM plus Nodal approximately 1 μg/ml): Significant Sox17 expression

B2: Activin A: member of the TGFβ family (protein, UniProt P08476 311-426, looked up)
Inhibin beta A chain: GLECDGKVNICCKKQFFVSFKDIGWNDWIIAPSGYHANYCEGECPSHIAGTSGSSLSFHSTVINHYRMRGHSPFANLKSCCVPTKLRPMSMLYYDDGQNIIKKDIQNMIVEECGCS
Sox17 expression (fold-increase over untreated) (BG01 cells [2]; LY 294002 approximately 60 μM plus Activin A approximately 100 ng/ml): Significant Sox17 expression

B3: Follistatin: inhibitor of Activin signaling (protein, UniProt P19883 30-344, looked up)
Follistatin: GNCWLRQAKNGRCQVLYKTELSKEECCSTGRLSTSWTEEDVNDNTLFKWMIFNGGAPNCIPCKETCENVDCGPGKKCRMNKKNKPRCVCAPDCSNITWKGPVCGLDGKTYRNECALLKARCKEQPELEVQYQGRCKKTCRDVFCPGSSTCVVDQTNNAYCVTCNRICPEPASSEQYLCGNDGVTYSSACHLRKATCLLGRSIGLAYEGKCIKAKSCEDIQCTGGKKCLWDFKVGRGRCSLCDELCPDSKSDEPVCASDNATYASECAMKEAACSSGVLLEVKHSGSCNSISEDTEEEEEDEDQDYSFPISSILEW
LY 294002, MEF-CM dependent Sox17 expression (hESC): suppressed
